From patent US20240002499A1, “ANTI-CLIC1 PROTEIN ANTIBODIES AND THE DIAGNOSTIC AND THERAPEUTIC USES THEREOF” (Universita' Degli Studi di Milano, priority 2020, published 2024)
“Also recorded” adds a separate entry of the source.

Experiments:
tmCLIC1 ion channel = molecular target: T1, tmCLIC1 ion channel (Mus musculus, UniProt Q9Z1Q5); assay: Whole-cell patch clamp on BV2 microglial cells with β-amyloid; assay type: cell-based, mice; conditions: blocker perfused after tmCLIC1omab
T1 construct: endogenous in cells; host or cells: BV-2 mouse microglial cell line
Description: The microglial cells used (BV-2) originated from an immortalised cell line deriving from C57BL/6 mice and commonly marketed. The culture medium used was RPMI (Thermo Fisher Scientific) with the addition of 10% FBS (Euroclone) and 1% Pen/Strep ([…], Thermo Fisher Scientific).
The microelectrodes were obtained from borosilicate capillaries with a diameter of 1.5 mm. Micropipettes were produced with a P-97 Brown-Flaming puller (Sutter Instruments, Novato, CA), with which the capillaries were forged to a tip diameter of 1-1.5 μm and electrical resistance of 5-8 MΩ.
The perforated patch clamp configuration was used for the whole-cell experiments, employing the antibiotic gramicidin (final concentration in pipette 5 μg/ml) which forms pores in the membrane that are only permeable to monovalent cations; in this way, the cytoplasmic concentration of the chloride ion remains unchanged throughout the experiment. The ion currents were digitised at 5 kHz and filtered at 1 kHz. Clampex 9.2 was used as the data acquisition and analysis programme.
In the time-course experiments, the potential was set on the basis of the resting potential of each cell, and a voltage step of +60 mV was applied every 5 seconds. The current measured is that observed at the end of the voltage step lasting 800 ms. When the amplitude of the current reaches a constant value, the antibody and IAA94 are added in sequence. […]

CLIC1 = molecular target: T2, CLIC1 (Homo sapiens, UniProt O00299); assay: Whole-cell patch clamp on HEK cells transfected with CLIC1 plasmid; assay type: cell-based; conditions: HEK cells overexpressing CLIC1; voltage steps from −60 to +80 mV; IAA94 50 μM
T2 construct: expressed in transfected cells; host or cells: HEK cells
Protocol: FIG. 17. Current/voltage relationship of CLIC1 membrane current in whole-cell patch clamp experiments. HEK cells were transfected with CLIC1 plasmid to overexpress the CLIC1 protein. After recording control current (filled cycles; n=5) cells were perfused alternatively with the polyclonal antibody (open triangles; n=7), tmCLIComab (inverse open triangles; n=10) and with 50 μM IAA94 (filled squared; n=11). The whole cells current is expressed as a current density.
The reference sequence of the CLIC1 protein used in the experiments described in the present patent application is filed at UniProt under number UniProtKB—000299 (CLIC1 human), and described in the article Harrop S. J. et al., “Crystal structure of a soluble form of the intracellular chloride ion channel CLIC1 (NCC27) at 1.4-Å Resolution”; The Journal of Biological Chemistry, Vol. 276 No. 48, November 30, pp. 44993-45000 (2001).
The potential was set on the basis of the resting potential of each cell (between 0 and −80 mV). The CLIC1-mediated chlorine currents were isolated from other ion currents by mathematical subtraction of the residual current following perfusion of 100 μM IAA94 dissolved in the external solution.

human glioblastoma cells [1] = assay: Growth curves of human glioblastoma cells in primary culture; assay type: cell-based; conditions: glioblastoma cells, FIG. 9
Description: The primary glioblastoma cell lines, already tested for stem cell properties and carcinogenicity, were kindly supplied by Professor T. Florio's laboratory at Genoa University (Genoa, Italy). The cells were obtained from a surgical biopsy performed in the Neurosurgery Department of IRCCS-AOU San Martino IST (Genoa, Italy), from patients who had not received any treatment before the operation. The samples were histologically classified as GB grade IV (according to the WHO classification), and were used after obtaining the patients' informed consent and the approval of the Institutional Ethics Committee (IEC). The cells were cultured in stem cell-permissive medium consisting of Dulbecco's Modified Eagle's Medium (DMEM) and F12-GlutaMAX at the ratio of 1:1, supplemented with 1×B27 (Thermo Fisher Scientific), […] of fibroblast growth factor (FGF, Miltenyi Biotec), […] of human epidermal growth factor (EGF, Miltenyi Biotec) and 1% penicillin/streptomycin (Pen/Strep, […]) (Thermo Fisher Scientific).
The cells were seeded in 24-well plates (20,000 cells/well) and counted after 24, 48, 72 and 96 hours to construct the growth curve. The cells were collected and centrifuged, and the resuspended pellet was diluted 1:1 with Trypan Blue. An automated counter (Countess II, Thermo Fisher Scientific) was used to count the cells. All data were normalized to their controls.

human glioblastoma cells [2] = assay: ROS production in human glioblastoma cells in primary culture; assay type: cell-based
Protocol: In the subsequent functional experiment, ROS production was measured over time. The graph in FIG. 11 relates to the acquisition of fluorescence signals proportional to the amount of cytoplasmic ROS in glioblastoma cells. The cells were treated with both the antibody and the tmCLIC1 channel blocker.

COLO201 [3] = assay: COLO201 spheroids, 3D culture; assay type: cell-based; conditions: treated 24 to 96 hours, area normalized on initial area
Protocol: To evaluate whether tmCLIC1omab is able to penetrate across tumor spheroids, a 3D culture was performed. After the complete formation of spheroids, treatments were added and the area was measured every 24 hours up to 96 hours. The area at each time point was then normalized on the initial spheroids' area.
Spheroids were formed with hanging-drop method and then plated in rounded 96 plates coated with 5% of agar. After the complete formation of spheroids, treatments were added and the area was measured every 24 hours up to 96 hours. The area at each time point was then normalized on the initial spheroids' area.

COLO201 [4] = assay: Trans well migration and invasion assay; assay type: cell-based; conditions: COLO201 WT, 72 h
Protocol: The overexpression of tmCLIC1 in the most aggressive cell lines of colorectal cancer and its pivotal role in regulation of cell cycle progression and proliferation, opens a question on the function of tmCLIC1 activity on migration and invasion potential of CRCs, that makes colorectal cancer still uncurable. We performed a Trans well assay to understand whether CLIC1 impairment could affect the migration and invasion potential of COLO201. Cells were plated after 60 hours of serum deprivation on a porous membrane, permeable only to growth factor, in contact to complete medium. The resulting chemo-attractant gradient leads the migrative cells to cross the membranes that are then stained with DAPI to visualize the nuclei. […] For invasion assays, we coated with Matrigel the porous membrane to mimic the extracellular matrix that cells must disrupt to invade tissues and mucosa.
Cells were plated after 60 hours of serum deprivation on a […] porous membrane, permeable only to growth factor, in contact to complete medium. Membranes were cut, stained with DAPI dye, and included with mowiol. Cover glasses were examined under Zeiss Examiner A1 fluorescence microscope with a Zeiss 40×/0.75 NA water immersion lens.

pMAP38 = assay: Western blot of phosphorylated MAP38 in COLO201; assay type: cell-based; conditions: COLO201, 72 h of treatment
[5] = test system: Metalloproteinase 7 (MMP7); assay: Western blot of Metalloproteinase 7 in COLO201; assay type: cell-based; conditions: COLO201, 72 h of treatment
tumour cells = conditions: both in vitro and in vivo; cited from earlier work
[6] = cited from earlier work

In the case of `C[C@]1(C2CCCC2)Cc2cc(OCC(=O)O)c(Cl)c(Cl)c2C1=O` [IAA94, R(+)-[(6,7-dichloro-2-cyclopentyl-2,3-dihydro-2-methyl-1-oxo-1H-inden-5-yl)-oxy]acetic acid, reference compound], the “further decrease in membrane current after antibody treatment” value (tmCLIC1 ion channel) was “only generates a minimal decrease in current”, the “inhibition of CLIC1 ionic whole-cell current” value (CLIC1) was “maximum inhibition” and the “growth rate compared with Clic1−/− knockout cells” value (human glioblastoma cells [1]) was “the same growth rate”. The “fall in ROS production” value (human glioblastoma cells [2]; FIG. 11 legend, versus control) was “about fourfold”, the “reduction of the slope of the ROS increase curve” value (human glioblastoma cells [2]; fluorescence signals proportional to cytoplasmic ROS) was “about fivefold” and the “spheroids' area / proliferation of spheroids versus control” value (COLO201 [3]) was “significantly smaller compared to the control from 48 h; also recorded: impair proliferation of spheroids significantly after 48 hours”. For the same compound, the “migration (number of migrative nuclei) versus control” value (COLO201 [4]) was “significant lower number of migrative nuclei”, the “invasion (number of invasive nuclei) versus control” value (COLO201 [4]; Matrigel-coated membrane) was “the same behavior seen for migration assay” and the “expression of pMAP38” value (pMAP38) was “downregulated”. The “expression of Metalloproteinase 7” value [5] was “mainly abolished”, the “proliferation of the tumour cells” value (tumour cells) was “drastic slowing” and the “usability in vivo / side effects” value [6] was “unusable in vivo for its side effects”.
